Measurements taken from EP4660190A1, “PHARMACEUTICALLY ACCEPTABLE SALT OF COMPOUND AND PREPARATION METHOD THEREFOR” (Jiangsu Chia Tai Fenghai Pharmaceutical Co., Ltd., priority 2023, dated 2024).
Read-outs that look alike come from different tables or passages of the source.

What was measured:
[1] = test system: rat spinal cord injury model; experiment: Rat spinal cord injury model, Neurofilament 200 (NF200) expression; assay type: in vivo, Male SD rats; details: 180 mg/kg single iv, mean±SD, n=6
[2] = test system: rat spinal cord injury model; experiment: Rat spinal cord injury model, BBB locomotor scores; assay type: in vivo, Male SD rats; details: 180 mg/kg single iv, mean±SD
Excerpt: The scoring method is as follows: [table]

[3] = test system: rat spinal cord injury model; experiment: Rat spinal cord injury model, pathological changes; details: 180 mg/kg single iv; spinal cord histopathology
[4] = test system: MPTP-induced Parkinson's disease model mice; experiment: MPTP-induced mouse Parkinson's disease model, grip strength test; details: positive control 20 mg/kg group; Before Modeling; mean ± SD
[5] = test system: MPTP-induced Parkinson's disease model mice; experiment: MPTP-induced mouse Parkinson's disease model, striatal dopamine (DOPA) detection; assay type: in vivo, C57 mice; details: striatum; positive control 20 mg/kg daily, four weeks; mean ± SD
[6] = test system: MPTP-induced Parkinson's disease model mice; experiment: MPTP-induced mouse Parkinson's disease model, pole test; assay type: in vivo, C57 mice; details: mean ± SD
[7] = test system: MPTP-induced Parkinson's disease model mice; experiment: MPTP-induced mouse Parkinson's disease model, TH-positive fiber content in the striatum; assay type: in vivo, C57 mice; details: positive control 20 mg/kg daily, four weeks, mean ± SD
[8] = test system: MPTP-induced Parkinson's disease model mice; experiment: MPTP-induced mouse Parkinson's disease model, TH-positive cell counts in the substantia nigra pars compacta; assay type: in vivo, C57 mice; details: positive control 20 mg/kg daily, four weeks, mean ± SD
[9] = test system: TDP-43-A315T transgenic mice of ALS model; experiment: TDP-43-A315T ALS mice, muscle tone test; assay type: in vivo; details: 25 mg/kg p.o., Mean±SEM
[10] = test system: TDP-43-A315T transgenic mice of ALS model; experiment: TDP-43-A315T ALS mice, rotarod test; assay type: in vivo; details: 25 mg/kg p.o., Mean±SEM

For `C[C@H]1C[C@@H]2[C@H]([C@@H](O)C[C@@]3(C)[C@H]2CC[C@]3(O)C(=O)COC(=O)CCC(=O)O)[C@@]2(C)C=CC(=O)C=C12` [methylprednisolone succinate], the “Positive Count (number per field of view)” value [1] was 22.2± 6.3 number per field of view, the “BBB Locomotor Scores” value ([2]; 3 d after dosing) was 0.1± 0.3 and the “BBB Locomotor Scores” value ([2]; 7 d after dosing) was 2.8± 1.9. For the same compound, the “BBB Locomotor Scores” value ([2]; 14 d after dosing) was 5.7±4.5, the “BBB Locomotor Scores” value ([2]; 28 d after dosing) was 7.9±3.4 and the “BBB Locomotor Scores” value ([2]; Before dosing) was 0± 0. The “cases showing a reduction in lesions” value [3] was 3 out of 6.

For “(Z)-3-(1-hydroxybutenyl)benzofuran-2-one meglumine salt [Example 9]”, the Appearance (0 h) was “White solid”, the Purity (0 h) was 99.53% and the Appearance (High Humidity 75%, 10 d) was “White solid”. The Purity (High Humidity 75%, 10 d) was 99.01%, the Appearance (High Humidity 92.5%, 10 d) was “Yellow oily liquid” and the Purity (High Humidity 92.5%, 10 d) was 98.62%. For the same compound, the Appearance (High temperature 40°C, 10 d) was “White solid”, the Purity (High temperature 40°C, 10 d) was 99.45% and the Appearance (High temperature 60°C, 10 d) was “White solid”. For the same compound, the Purity (High temperature 60°C, 10 d) was 98.04%, the Appearance (Light, 10 d) was “White solid” and the Purity (Light, 10 d) was 99.60%.

With `CC/C=C(\O)C1C(=O)Oc2ccccc21.[Ca]` (centres unmarked) [Example 6, (Z)-3-(1-hydroxybutenyl)benzofuran-2-one calcium salt] the Appearance (0 h) was “White solid”, the Purity (0 h) was 99.42% and the Appearance (High Humidity 75%, 10 d) was “White solid”. The Purity (High Humidity 75%, 10 d) was 99.56%, the Appearance (High Humidity 92.5%, 10 d) was “White solid” and the Purity (High Humidity 92.5%, 10 d) was 99.44%. For the same compound, the Appearance (High temperature 40°C, 10 d) was “White solid”, the Purity (High temperature 40°C, 10 d) was 99.58% and the Appearance (High temperature 60°C, 10 d) was “White solid”. For the same compound, the Purity (High temperature 60°C, 10 d) was 99.68%, the Appearance (Light, 10 d) was “White solid” and the Purity (Light, 10 d) was 99.43%.

With `N[C@@H](Cc1ccc(O)c(O)c1)C(=O)O` [Levodopa, reference compound] the “Grip Strength Test” value [4] was 272.61 ± 9.01 g, the DOPA [5] was 1156.72±375.72^& ng/g and the “Pole test results” value ([6]; positive control 20 mg/kg daily, four weeks, Study Endpoint) was 8.76 ± 1.57 s. For the same compound, the “Pole test results” value ([6]; positive control 20 mg/kg group, Before Modeling) was 9.40 ± 1.62 s, the “TH-Positive Fiber Content” value [7] was 536968.78±68050.46^& and the “TH-Positive Fiber Content” value ([7]; listed as levodopa) was 536,968.78±68,050.46. The “TH-Positive Cell counts” value [8] was 31.50±4.14^&.

With “(Z)-3-(1-hydroxybutylidene)benzofuran-2-one piperazine salt [Example 7]” the Appearance (0 h) was “Light yellow solid”, the Purity (0 h) was 99.59% and the Appearance (High Humidity 75%, 10 d) was “Light yellow solid”. The Purity (High Humidity 75%, 10 d) was 99.66%, the Appearance (High Humidity 92.5%, 10 d) was “Light yellow solid” and the Purity (High Humidity 92.5%, 10 d) was 99.54%. The Appearance (High temperature 40°C, 10 d) was “Light yellow solid”, the Purity (High temperature 40°C, 10 d) was 99.67% and the Appearance (High temperature 60°C, 10 d) was “Light yellow solid”. The Purity (High temperature 60°C, 10 d) was 99.72%, the Appearance (Light, 10 d) was “Light yellow solid” and the Purity (Light, 10 d) was 99.43%.

With “(Z)-3-(1-hydroxybutenyl)benzofuran-2-one potassium salt [Example 4]” the Appearance (0 h) was “White solid”, the Purity (0 h) was 99.41% and the Appearance (High Humidity 75%, 10 d) was “White solid”. The Purity (High Humidity 75%, 10 d) was 99.34%, the Appearance (High Humidity 92.5%, 10 d) was “White solid” and the Purity (High Humidity 92.5%, 10 d) was 99.47%. For the same compound, the Appearance (High temperature 40°C, 10 d) was “White solid”, the Purity (High temperature 40°C, 10 d) was 99.66% and the Appearance (High temperature 60°C, 10 d) was “White solid”. For the same compound, the Purity (High temperature 60°C, 10 d) was 99.58%, the Appearance (Light, 10 d) was “White solid” and the Purity (Light, 10 d) was 99.41%.

For `Nc1nc2ccc(OC(F)(F)F)cc2s1` [Riluzole, reference compound], the “Muscle Tone” value ([9]; female mice, animal age 6 weeks) was 145.2 ± 5.444 g, the “Muscle Tone” value ([9]; female mice, animal age 8 weeks) was 177.8 ± 9.836 g and the “Muscle Tone” value ([9]; female mice, animal age 10 weeks) was 133.6 ± 12.04 g. For the same compound, the “Muscle Tone” value ([9]; female mice, animal age 12 weeks) was 161.5 ± 3.666 g, the “Muscle Tone” value ([9]; female mice, animal age 13 weeks) was 146.4 ± 6.928 g and the “Muscle Tone” value ([9]; female mice, animal age 14 weeks) was 143.1 ± 9.165 g. The “Muscle Tone” value ([9]; female mice, animal age 16 weeks) was 149.0 ± 6.827 g, the “Muscle Tone” value ([9]; male mice, animal age 6 weeks) was 144.0 ± 10.127 g and the “Muscle Tone” value ([9]; male mice, animal age 8 weeks) was 152.4 ± 10.35 g. For the same compound, the “Muscle Tone” value ([9]; male mice, animal age 10 weeks) was 150.5 ± 14.46 g, the “Muscle Tone” value ([9]; male mice, animal age 12 weeks) was 145.4 ± 5.551 g and the “Muscle Tone” value ([9]; male mice, animal age 13 weeks) was 147.8 ± 1.650 g. The “Muscle Tone” value ([9]; male mice, animal age 14 weeks) was 129.2 ± 1.250 g, the “Rotarod performance” value ([10]; female mice, Dosing Schedule (weeks) 2) was 269.8 ± 5.164 s and the “Rotarod performance” value ([10]; female mice, Dosing Schedule (weeks) 4) was 258.8 ± 15.65 s. For the same compound, the “Rotarod performance” value ([10]; female mice, Dosing Schedule (weeks) 6) was 275.3 ± 9.266 s, the “Rotarod performance” value ([10]; female mice, Dosing Schedule (weeks) 8) was 272.3 ± 10.56 s and the “Rotarod performance” value ([10]; female mice, Dosing Schedule (weeks) 10) was 238.4 ± 16.32 s. For the same compound, the “Rotarod performance” value ([10]; female mice, Dosing Schedule (weeks) 12) was 252.3 ± 16.24 s, the “Rotarod performance” value ([10]; female mice, Dosing Schedule (weeks) 14) was 270.6 ± 12.70 s and the “Rotarod performance” value ([10]; female mice, Dosing Schedule (weeks) 16) was 255.9 ± 17.39 s. The “Rotarod performance” value ([10]; male mice, Dosing Schedule (weeks) 6) was 250.8 ± 12.71 s, the “Rotarod performance” value ([10]; male mice, Dosing Schedule (weeks) 8) was 236.4 ± 16.14 s and the “Rotarod performance” value ([10]; male mice, Dosing Schedule (weeks) 10) was 234.0 ± 10.64 s. The “Rotarod performance” value ([10]; male mice, Dosing Schedule (weeks) 11) was 215.6 ± 31.32 s, the “Rotarod performance” value ([10]; male mice, Dosing Schedule (weeks) 12) was 202.4 ± 41.22 s and the “Rotarod performance” value ([10]; male mice, Dosing Schedule (weeks) 13) was 135.32 ± 76.92 s.

With `CCC/C(O)=C1/C(=O)Oc2ccccc21.NCCO` [Example 8] the Appearance (0 h) was “White solid”, the Purity (0 h) was 99.19% and the Appearance (High Humidity 75%, 10 d) was “White solid”. For the same compound, the Purity (High Humidity 75%, 10 d) was 99.71%, the Appearance (High Humidity 92.5%, 10 d) was “White solid” and the Purity (High Humidity 92.5%, 10 d) was 99.79%. The Appearance (High temperature 40°C, 10 d) was “White solid”, the Purity (High temperature 40°C, 10 d) was 99.75% and the Appearance (High temperature 60°C, 10 d) was “White solid”. For the same compound, the Purity (High temperature 60°C, 10 d) was 99.75%, the Appearance (Light, 10 d) was “White solid” and the Purity (Light, 10 d) was 99.78%.

For “(Z)-3-(1-hydroxybutenyl)benzofuran-2-one sodium salt [Example 2]”, the “Impurities RRT1.41” value (0 h) was 0.10, the “Impurities RRT1.47” value (0 h) was 0.11 and the “Impurities Total impurities” value (0 h) was 0.21. For the same compound, the “Impurities RRT1.41” value (High Humidity 75%, 10 d) was 0.12, the “Impurities RRT1.47” value (High Humidity 75%, 10 d) was 0.10 and the “Impurities Total impurities” value (High Humidity 75%, 10 d) was 0.22. The “Impurities RRT1.41” value (High temperature 60°C, 10 d) was 0.14, the “Impurities RRT1.47” value (High temperature 60°C, 10 d) was 0.09 and the “Impurities Total impurities” value (High temperature 60°C, 10 d) was 0.23. For the same compound, the “Impurities RRT1.41” value (Light, 10 d) was 0.07, the “Impurities RRT1.47” value (Light, 10 d) was 0.09 and the “Impurities Total impurities” value (Light, 10 d) was 0.16.

With `CCC/C(O)=C1/C(=O)Oc2ccccc21.[Mg]` [Example 5, (Z)-3-(1-hydroxybutylidene)benzofuran-2-one magnesium salt] the Appearance (0 h) was “White solid”, the Purity (0 h) was 99.67% and the Appearance (High Humidity 75%, 10 d) was “White solid”. For the same compound, the Purity (High Humidity 75%, 10 d) was 99.83%, the Appearance (High Humidity 92.5%, 10 d) was “White solid” and the Purity (High Humidity 92.5%, 10 d) was 99.79%. For the same compound, the Appearance (High temperature 40°C, 10 d) was “White solid”, the Purity (High temperature 40°C, 10 d) was 99.82% and the Appearance (High temperature 60°C, 10 d) was “White solid”. The Purity (High temperature 60°C, 10 d) was 99.58%, the Appearance (Light, 10 d) was “White solid” and the Purity (Light, 10 d) was 99.72%.
